Experimental data from EP0503537B1, “6,9 Bis(substituted-amino)benzo-[g]isoquinoline-5,10-diones” (THE UNIVERSITY OF VERMONT, priority 1991, dated 1992).
Values after ≈ are worked out from the molar mass of the structure shown. Values joined by “and” are separate entries in the source; they are usually repeats but may differ in a detail not shown here. Equal entries are not always repeated.

Columns and labels:
[1] = test system: L1210 Murine leukemia cells; test: In vitro growth inhibition of L1210 murine leukemia cells (Coulter Counter); type: cell-based; details: Mus musculus, 72 hours of continuous exposure
Method: The "in vitro" cytotoxic evaluation was also performed on L 1210 murine leukemia cells using the above mentioned cells maintained in suspension cultures (McCoy's 5A medium supplemented with 10% horse serum, glutamine, penicillin and streptomycin) grown in an humidified environment of 10% carbon dioxide and 90% air at 37°C. The compounds were dissolved in dimethylsulfoxide (DMSO) and added to the suspended cells in appropriate concentrations. After 72 hours of continuous exposure, the cell concentration was counted using a Coulter Counter and growth inhibition calculated using the formula: % growth inhibition = 1 - [cell number treated/cell number DMSO alone] x 100. [formula]
The IC50 was calculated from the growth inhibition data and they are reported in table VII in comparison to the prior art compound 5a (see table I for structure of 5a).
L1210 Murine leukemia cells were routinely maintained in suspension cultures in McCoy's 5A medium supplemented with 10% horse serum glutamine, penicillin and streptomycin and grown in a humidified environment of 10% carbon dioxide and 90% air at 37°C.
To assess the in vitro toxicity, each compound was dissolved in dimethylsulfoxide and added to 1 ml of L1210 cells (10^5 cells/tube) to attain final concentrations of 0.01, 0.1 and 1 µg of drug/ml of culture. After 72 hours of continues exposure to the drug, the cell concentration was determined with a Coulter Counter. Growth inhibition was calculated for each drug using the following formula: % growth inhibition = 1-[cell number treated/cell number DMSO alone] x 100. [formula]
The growth inhibition data was then used to calculate the IC50 value (the calculated drug concentration required to inhibit cell growth by 50% of control.

[2] = test system: human colon adenocarcinoma cell line (Lovo); test: MTT cytotoxicity assay on human colon adenocarcinoma Lovo cells; type: cell-based; details: 144 h, read-out: IC50 µg/ml±S.D. LoVo
Method: (§1) The evaluation of the "in vitro" cytotoxic activity of the compounds of the invention was performed using a human colon adenocarcinoma cell line (Lovo) isolated from a metastatic nodule and a subline with aquired resistance to a number of antitumor agents, among which doxorubicin, VP-16 and vincristine. […] The compounds were tested according to the MTT assay (Mosman, T., "Rapid Colorimetric assay for cellular growth and survival: application to proliferation and cytotoxicity assay", J. Immunol. Methods, (1983), 65, 55-63; Green, L.M., "Rapid colorimetric assay for cell viability; application to the quantitation of cytotoxic and growth inhibitory lymphokines", J. Immunol. Methods, (1984), 70, 257-268) in comparison with mitoxantrone, ametantrone and doxorubicin.
(§2) In vitro biological evaluation: MTT assay on human colon adenocarcinoma Lovo cells.
(§3) The MTT assay was performed according to Mosmann, T., J. Immunol. Methods, (1983), 65, 55-63 and Green, L. M., J. Immunol. Methods, (1984), 70, 257-268.
(§4) Immediately before use, compounds and reference standards are dissolved in proper solvent and subsequently further diluted in complete culture medium. Human colon adenocarcinoma cells Lovo and the subline resistant to doxorubicin (Lovo/DX) (2.5. 10^4 cells/ml) are plated in 96-well plates and preincubated for 24 hours in culture medium. After this time, the cells are exposed to drugs for 144 hours, then the thiazolyl blue tetrazolium bromide solution (MTT solution) is added and the cells are reincubated for 4 hours. The supernatant is removed and 150 µl of dimethylsulfoxide are added to solubilize formazan crystals. The plate is read at 570 nm with microplate reader and the inhibiting concentration of 50% cellular growth (IC50; µg/ml) is calculated.

[3] = test system: Lovo/DX; test: MTT cytotoxicity assay on doxorubicin-resistant subline Lovo/DX; type: cell-based, human; details: for IC50: Homo sapiens, LoVo/DX, MTT assay, 144 hrs drug exposure, read-out: IC50 µg/ml±S.D. LoVo/Dx; for R.I.: R.I. = (IC50 LoVo/Dx)/(IC50 LoVo)
Method: as §1, §2, §3, §4

[4] = test system: P388 Murine Leukemia; test: In vivo P388 murine leukemia (iv/iv, d 1, 4, 7); details: for T/C% (range): median survival time; for TOX: toxic deaths/total number of mice; for LTS: tumor free at 60 days
Method: P388 Murine Leukemia cells were maintained in vivo by serial intraperitoneal (i.p.) injections of 10^6 cells in DBA2 mice. For test purposes, CDF1 mice were inoculated intravenously (i.v.) with 10^6 P388 cells and treatment was initiated 24 hr later. The i.v. dose of drug was administered on days 1, 4 and 7. Mice were observed daily for signs of toxicity and survival. The date of death was recorded for each animal that died or was sacrificed during the 60 day study. The median survival time (MST) for each treatment group was calculated and the % T/C was determined using the following formula: % T/C = [(MST treated)/(MST control)] x 100 [formula]

[5] = test system: P388 Murine Leukemia; test: In vivo ascitic P388 murine leukemia (ip/ip, d 1, 5, 9); set-up: species or system CDF1 mice; details: for % T/C (range): median survival time; for TOX: toxic deaths/total No. of mice
Method: Treatment was initiated approximately 24 hours after tumor transplantation and dosages of the drug were administered ip (P388 ip/ip) or iv (P388 iv/iv) according to preestablished protocols, usually at 3-day (P388 iv/iv) or 4-day (P388 ip/ip) intervals. The studies were done over a 60-day period and the date of death for each animal was recorded. The % T/C was determined using the mean survival time (MST) for each group according to the formula % T/C = [(MST treated)/(MST control)] x 100 [formula]
(§5) P388 Murine Leukemia cells were maintained in vivo by serial intraperitoneal (ip) injections of 10^6 cells in DBA2 mice. For test purposes, CDF1 mice were inoculated i.p. with 10^6 P388 cells and treatment was initiated 24 hours later. The i.p dose of drug was administered on days 1, 5 and 9. Mice were observed daily for signs of toxicity and survival. The date of death was recorded for each animal that died or was sacrificed during the 60-day study. The median survival time (MST) for each treatment group was calculated and the % T/C was determined using the following formula: % T/C = [(MST treated)/(MST control)] x 100 [formula]

[6] = test system: murine Lewis Lung carcinoma; test: In vivo murine Lewis Lung carcinoma (im/iv); set-up: species or system C57b1/6 female mice; details: LEWIS LUNG im/iv 1,8,15; for T/C %: median survival time; for TOX: toxic deaths/total number of mice; for TWI %: tumor Weight Inhibition 7 days after last treatment
Method: (§6) These tumor models are enclosed in the panel of eight transplanted tumors used by the U.S.-NCl as screen panel for selection of clinically useful antitumor agents (R.K.Y. Zee Cheng and C.C. Cheng, "Screening and evaluation of anticancer agents", Meth. and Find. Expl. Clin. Pharmacol., (1988), 10(2), 67-101).
C57b1/6 female mice were trasplantated im (intralimbs) with 10^5 cells. […] The mean tumor weight for each treatment group was calculated according to Geran, R.I. et al., Cancer Chemother. Rep., (1972), 3, 51-61 and the TWI% was calculated 7 days after the last drug treatment using the formula: TWI% = 100-[(Mean tumor weight of treated mice)/(mean tumor weight of controls)] x 100. [formula]

[7] = test system: human MX-1 mammary carcinoma; test: In vivo human MX-1 mammary carcinoma xenograft (sc/iv); details: MX-1 sc/iv q 7d x 3; for TWI %: CD1 nu/nu female mice; for TOX: toxic deaths/total number of mice
Source text: as §6
CD1 nu/nu female mice were transplantated sc (subcutaneously) with tumor fragments (about 1 mm x 1 mm x 1 mm). Treatment was given iv once a week for three weeks, when tumor weight reached an average of 150 mg. For all individual tumors the weight change (relative tumor weight) for the start of treatment (Vo) was expressed as Vt/Vo at each day of measurement (Vt). TWI% was calculated 7 days after the last drug treatment using the formula: TWI% = 100-[(mean relative tumor weight of treated mice)/(mean relative tumor weight of controls)] x 100. [formula]

[8] = test system: L1210 murine leukemia; test: In vivo ascitic L1210 murine leukemia (ip/ip, d 1, 5, 9), protocol b, 10^5 cells; set-up: species or system CDF1 mice; details: for %T/C: median survival time; for TOX: toxic deaths/total No. of mice; for LTS: tumor free at 60 days
Method: Dosages of the drugs were administered ip according to preestablished protocols, usually at 4-day intervals. The studies were done over a 60-day period and the date of death for each animal was recorded. The % T/C was determined using the mean survival time (MST) for each group according to the formula % T/C = [(MST treated)/(MST control)] x 100 [formula]
as §5, with “• a) L1210 murine leukemia cells” for “P388 Murine Leukemia cells”, “by weekly” for “by serial”, “in BDF1” for “in DBA2”, “mice. For test purposes, mice were inoculated i.p. with 10^6 L1210 cells and treatment was initiated 24 hours later. The desired dose of drug was administered on days 1, 5 and 9. Mice were observed daily for signs of toxicity and survival. The date of death was recorded for each animal that died or was sacrificed during the 60-day study. […]” for “mice.”, “with 10^5 L1210” for “with 10^6 P388”, “The desired” for “The i.p”

Work on `O=C1c2ccncc2C(=O)c2c(NCCN3CC3)ccc(NCCN3CC3)c21` [Compound 10f, 6,9-Bis{[2-(1'-aziridino)ethyl]amino}benzo[g]isoquinoline-5,10-dione] yielded an IC50 [1] of 0.002 µg/mL (≈ 0.0053 µM).

`NCCNc1ccc(NCCN)c2c1C(=O)c1ccncc1C2=O.O=C(O)/C=C\C(=O)O.O=C(O)/C=C\C(=O)O` [Compound 10i.maleate, 6,9-bis{[2-(amino)ethyl]amino}benzo[g]isoquinoline-5,10-dione dimaleate] gave an IC50 [2] of 0.21 ± 0.08 µg/mL, an IC50 [3] of 6.7 ± 1.8 µg/mL and a R.I. [3] of 31.8. The “T/C% (range)” value ([4]; 18 mg/kg/day iv days 1,4,7, dimaleate) was 200% and 188%, the TOX ([4]; 18 mg/kg/day iv days 1,4,7) was 0/16 and the LTS ([4]; 18 mg/kg/day iv days 1,4,7) was 0/16. The “T/C% (range)” value ([4]; 27 mg/kg/day iv days 1,4,7) was 203(181-227) %, the TOX ([4]; 27 mg/kg/day iv days 1,4,7) was 2/32 and the LTS ([4]; 27 mg/kg/day iv days 1,4,7) was 0/32. The “LTS (day 60)” value ([5]; 25 mg/kg/day ip days 1,5,9) was 0/8, the “% T/C (range)” value ([5]; 25 mg/kg/day ip days 1,5,9) was 185% and the TOX ([5]; 25 mg/kg/day ip days 1,5,9) was 0/8. For the same compound, the “LTS (day 60)” value ([5]; 37.5 mg/kg/day ip days 1,5,9) was 1/8, the “% T/C (range)” value ([5]; 37.5 mg/kg/day ip days 1,5,9) was 260% and the TOX ([5]; 37.5 mg/kg/day ip days 1,5,9) was 1/8. For the same compound, the T/C % ([6]; 40 mg/Kg/day) was 158%, the TOX ([6]; 40 mg/Kg/day) was 0/10 and the TWI % ([6]; 40 mg/Kg/day) was 80%. For the same compound, the T/C % ([6]; 60 mg/Kg/day) was 182%, the TOX ([6]; 60 mg/Kg/day) was 1/10 and the TWI % ([6]; 60 mg/Kg/day) was 95%. The TWI % ([7]; 17 mg/Kg/day) was 65%, the TOX ([7]; 17 mg/Kg/day) was 0/7 and the TWI % ([7]; 26.6 mg/Kg/day) was 58%. For the same compound, the TOX ([7]; 26.6 mg/Kg/day) was 0/7, the TWI % ([7]; 40 mg/Kg/day) was 64% and the TOX ([7]; 40 mg/Kg/day) was 1/5.

`O=C1c2c(O)ccc(O)c2C(=O)c2c(NCCNCCO)ccc(NCCNCCO)c21` [Mitoxantrone, 5,8-dihydroxy-1,4-bis{[2-(2-hydroxyethylamino)ethyl]amino}anthracene-9,10-dione, reference compound] showed an IC50 [2] of 0.01 ± 0.009 µg/mL (≈ 0.0225 µM), an IC50 [3] of 0.29 ± 0.1 µg/mL (≈ 0.652 µM) and a R.I. [3] of 29.0. The “T/C% (range)” value ([4]; 2 mg/kg/day iv days 1,4,7) was 162(154-167) %, the TOX ([4]; 2 mg/kg/day iv days 1,4,7) was 0/42 and the LTS ([4]; 2 mg/kg/day iv days 1,4,7) was 0/42. For the same compound, the “T/C% (range)” value ([4]; 3 mg/kg/day iv days 1,4,7) was 185(167-217) %, the TOX ([4]; 3 mg/kg/day iv days 1,4,7) was 4/78 and the LTS ([4]; 3 mg/kg/day iv days 1,4,7) was 0/78. For the same compound, the “T/C% (range)” value ([4]; 4 mg/kg/day iv days 1,4,7) was 118(89-133) %, the TOX ([4]; 4 mg/kg/day iv days 1,4,7) was 20/24 and the LTS ([4]; 4 mg/kg/day iv days 1,4,7) was 0/24. The “LTS (day 60)” value ([5]; 1.5 mg/kg/day ip days 1,5,9) was 1/26, the “% T/C (range)” value ([5]; 1.5 mg/kg/day ip days 1,5,9) was 186(160-225) % and the TOX ([5]; 1.5 mg/kg/day ip days 1,5,9) was 6/26. For the same compound, the “LTS (day 60)” value ([5]; 3 mg/kg/day ip days 1,5,9) was 1/42, the “% T/C (range)” value ([5]; 3 mg/kg/day ip days 1,5,9) was 173(142-205) % and the TOX ([5]; 3 mg/kg/day ip days 1,5,9) was 21/42. For the same compound, the “%T/C” value ([8]; 1.5 mg/kg/day ip days 1,5,9) was 188%, the TOX ([8]; 1.5 mg/kg/day ip days 1,5,9) was 0/8 and the LTS ([8]; 1.5 mg/kg/day ip days 1,5,9) was 1/8. The “%T/C” value ([8]; 3 mg/kg/day ip days 1,5,9) was 194%, the TOX ([8]; 3 mg/kg/day ip days 1,5,9) was 1/8 and the LTS ([8]; 3 mg/kg/day ip days 1,5,9) was 1/8.
